# Experimental data reported in US20220389061A1, “IMMUNOMODULATORS” (priority 2019, published 2022).
# pIC50: −log10 of the molar value. Like-named read-outs stand apart in the source and are kept apart here. Starred links: 1 amine or outer side, 2 acyl side, 3 side chain; linkers in the order of their positions; H or OH if unused. Positions of bridges follow the written chain, without caps; N, C: chain ends. Non-standard residues stand in square brackets, D forms with d. Residues, ends and D or L forms follow the SMILES beside them. Groups on a side chain read outwards from the residue. *: point of attachment. Trp(1-CH2COOH) = N[C@@H](Cc1cn(CC(=O)O)c2ccccc12)C(=O)O; NH(2-Cl-4-NO2-phenyl) = O=[N+]([O-])c1ccc(N*)c(Cl)c1; Hyp = O=C(O)[C@@H]1C[C@@H](O)CN1; X80 = S=C(Nc1ccc(-n2cccn2)cc1)*; NH(3-MeOPh) = COc1cccc(N*)c1; NMeNle = CCCC[C@H](NC)C(=O)O; NMeA = CN[C@@H](C)C(=O)O; X71 = c1cc2c(cc1N*)OCCO2; Dab = NCC[C@H](N)C(=O)O; X45 = c1ccc2sc(N*)cc2c1; Dap = NC[C@H](N)C(=O)O; CO = O=C([*:1])[*:2]
# Molecular target: T1, PD-1/PD-L1 (Homo sapiens, UniProt Q9NZQ7)
# T1 construct: TVMV protease site linker (C); made in house; host or cells: HEK293T cells
# Experiment: PD-1/PD-L1 Homogenous Time-Resolved Fluorescence (HTRF) binding assay
# Procedure, shortened: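 Compounds preincubated 15 min with PD-L1-His (10 nM final), then PD-1-Ig (20 nM final) added for 15 min in dPBS with 0.1% BSA, 0.05% Tween-20. Detection by Eu-cryptate anti-Ig (1 nM) and APC anti-His (20 nM) HTRF.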
# [1] = PD-L1-His 10 nM pre-incubated with inhibitor, PD-1-Ig 20 nM, read-out: HTRF IC50
# T1 sequence (Q9NZQ7 18-239): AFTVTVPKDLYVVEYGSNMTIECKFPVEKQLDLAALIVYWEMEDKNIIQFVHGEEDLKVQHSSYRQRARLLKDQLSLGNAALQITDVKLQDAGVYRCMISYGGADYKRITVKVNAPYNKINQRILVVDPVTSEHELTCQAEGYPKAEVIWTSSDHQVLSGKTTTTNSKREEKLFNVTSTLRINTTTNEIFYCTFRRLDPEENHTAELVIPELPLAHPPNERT
Compound,pIC50 [1],pIC50
CCCC[C@H]1C(=O)N(C)[C@@H](CCCC)C(=O)N[C@@H](CC(C)C)C(=O)N[C@H](C(=O)NCC(N)=O)CSCC(=O)N[C@@H](Cc2ccc(O)cc2)C(=O)N(C)[C@@H](C)C(=O)N[C@@H](CC(N)=O)C(=O)N2CCC[C@H]2C(=O)N[C@@H](CNC(=O)Nc2ccc([N+](=O)[O-])cc2Cl)C(=O)N[C@@H](CC(C)C)C(=O)N2C[C@H](O)C[C@H]2C(=O)N[C@@H](Cc2c[nH]c3ccccc23)C(=O)N[C@@H](CCNC(=O)Nc2ccc([N+](=O)[O-])cc2Cl)C(=O)N[C@@H](Cc2cn(CC(=O)O)c3ccccc23)C(=O)N1C [Example 1096] ({CH2CO}-Y[NMeA]NP[Dap]([CO-NH(2-Cl-4-NO2-phenyl)])L[Hyp]W[Dab]([CO-NH(2-Cl-4-NO2-phenyl)])[Trp(1-CH2COOH)][NMeNle][NMeNle]LCG-NH2; thioether N-14),,8.16
CCCC[C@H]1C(=O)N(C)[C@@H](CCCC)C(=O)N[C@@H](CC(C)C)C(=O)N[C@H](C(=O)NCC(N)=O)CSCC(=O)N[C@@H](Cc2ccc(O)cc2)C(=O)N(C)[C@@H](C)C(=O)N[C@@H](CC(N)=O)C(=O)N2CCC[C@H]2C(=O)N[C@@H](CNC(=O)Nc2ccc3c(c2)OCCO3)C(=O)N[C@@H](CC(C)C)C(=O)N2C[C@H](O)C[C@H]2C(=O)N[C@@H](Cc2c[nH]c3ccccc23)C(=O)N[C@@H](CCNC(=O)Nc2ccc3c(c2)OCCO3)C(=O)N[C@@H](Cc2cn(CC(=O)O)c3ccccc23)C(=O)N1C [Example 3059] ({CH2CO}-Y[NMeA]NP[Dap]([CO-X71])L[Hyp]W[Dab]([CO-X71])[Trp(1-CH2COOH)][NMeNle][NMeNle]LCG-NH2; thioether N-14),8.52,
CCCC[C@H]1C(=O)N(C)[C@@H](CCCC)C(=O)N[C@@H](CC(C)C)C(=O)N[C@H](C(=O)NCC(N)=O)CSCC(=O)N[C@@H](Cc2ccc(O)cc2)C(=O)N(C)[C@@H](C)C(=O)N[C@@H](CC(N)=O)C(=O)N2CCC[C@H]2C(=O)N[C@@H](CNC(=O)Nc2cccc(OC)c2)C(=O)N[C@@H](CC(C)C)C(=O)N2C[C@H](O)C[C@H]2C(=O)N[C@@H](Cc2c[nH]c3ccccc23)C(=O)N[C@@H](CCNC(=O)Nc2cccc(OC)c2)C(=O)N[C@@H](Cc2cn(CC(=O)O)c3ccccc23)C(=O)N1C [Example 1140] ({CH2CO}-Y[NMeA]NP[Dap]([CO-NH(3-MeOPh)])L[Hyp]W[Dab]([CO-NH(3-MeOPh)])[Trp(1-CH2COOH)][NMeNle][NMeNle]LCG-NH2; thioether N-14),8.22,

# Now from value to molecule, other results behind:
pIC50 [1],Compound,pIC50
8.25,CCCC[C@H]1C(=O)N(C)[C@@H](CCCC)C(=O)N[C@@H](CC(C)C)C(=O)N[C@H](C(=O)NCC(N)=O)CSCC(=O)N[C@@H](Cc2ccc(O)cc2)C(=O)N(C)[C@@H](C)C(=O)N[C@@H](CC(N)=O)C(=O)N2CCC[C@H]2C(=O)N[C@@H](CN)C(=O)N[C@@H](CC(C)C)C(=O)N2C[C@H](O)C[C@H]2C(=O)N[C@@H](Cc2c[nH]c3ccccc23)C(=O)N[C@@H](CCNC(=O)Nc2cc3ccccc3s2)C(=O)N[C@@H](Cc2cn(CC(=O)O)c3ccccc23)C(=O)N1C [Example 3061] ({CH2CO}-Y[NMeA]NP[Dap]L[Hyp]W[Dab]([CO-X45])[Trp(1-CH2COOH)][NMeNle][NMeNle]LCG-NH2; thioether N-14),
8.96,CCCC[C@H]1C(=O)N(C)[C@@H](CCCC)C(=O)N[C@@H](CC(C)C)C(=O)N[C@H](C(=O)NCC(N)=O)CSCC(=O)N[C@@H](Cc2ccc(O)cc2)C(=O)N(C)[C@@H](C)C(=O)N[C@@H](CC(N)=O)C(=O)N2CCC[C@H]2C(=O)N[C@@H](CNC(=S)Nc2ccc(-n3cccn3)cc2)C(=O)N[C@@H](CC(C)C)C(=O)N2C[C@H](O)C[C@H]2C(=O)N[C@@H](Cc2c[nH]c3ccccc23)C(=O)N[C@@H](CCN)C(=O)N[C@@H](Cc2cn(CC(=O)O)c3ccccc23)C(=O)N1C [Example 1060] ({CH2CO}-Y[NMeA]NP[Dap](X80)L[Hyp]W[Dab][Trp(1-CH2COOH)][NMeNle][NMeNle]LCG-NH2; thioether N-14),
